Assay results published in ChEMBL document CHEMBL3259737, “Lead optimization studies of cinnamic amide EP2 antagonists” (J Med Chem, 2014).
≈ marks a conversion by molar mass, not a printed value.

Legend:
physchem = settings: PBS buffer, pH 7.4
C6 = experiment: Cytotoxicity against rat C6 cells assessed as cell viability
[1] = Metabolic stability in human liver microsomes assessed as compound remaining at 10 uM after 60 mins
[2] = Metabolic stability in mouse liver microsomes assessed as compound remaining at 1 uM after 60 mins
[3] = Metabolic stability in mouse liver microsomes assessed as compound remaining at 10 uM after 60 mins
[4] = Cmax in C57BL/6 mouse at 3 mg/kg, iv; format: ADME, organism-based; design: dose 3 mg/kg, route intravenous; settings: in vivo
[5] = Metabolic stability in human liver microsomes assessed as compound remaining at 1 uM after 60 mins
[6] = target: Prostaglandin E2 receptor EP2 subtype (Homo sapiens) (UniProt P43116); experiment: Competitive antagonist activity at human EP2 receptor expressed in rat C6 cells assessed as parallel rightward shift in PGE2 concentration response curve treated for 10 mins prior to PGE2 challenge for 40 mins by TR-FRET assay; format: cell-based
Sequence of Prostaglandin E2 receptor EP2 subtype (Homo sapiens) (P43116 whole entry): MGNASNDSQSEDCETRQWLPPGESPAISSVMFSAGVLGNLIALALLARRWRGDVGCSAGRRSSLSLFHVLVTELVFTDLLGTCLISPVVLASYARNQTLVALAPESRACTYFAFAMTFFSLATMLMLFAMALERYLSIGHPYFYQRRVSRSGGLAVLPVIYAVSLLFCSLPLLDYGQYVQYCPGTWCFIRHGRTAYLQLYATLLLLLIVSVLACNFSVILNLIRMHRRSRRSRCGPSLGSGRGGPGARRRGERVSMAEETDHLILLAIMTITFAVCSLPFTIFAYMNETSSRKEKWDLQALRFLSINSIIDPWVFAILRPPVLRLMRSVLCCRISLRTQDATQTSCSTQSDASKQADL

[7] = Terminal half life in C57BL/6 mouse plasma at 3 mg/kg, ip; format: ADME, organism-based; design: dose 3 mg/kg, route intraperitoneal; settings: read-out: beta t1/2 (converted)
[8] = Ratio of drug level in brain to plasma in C57BL/6 mouse at 10 mg/kg, po measured after 1 to 2 hrs
in vivo [9] = settings: C57BL/6, mouse, po, 10 mg/kg
[10] = Ratio of drug level in brain to plasma in C57BL/6 mouse at 5 mg/kg, ip measured after 1 to 2 hrs
in vivo [11] = settings: C57BL/6, mouse, ip, 5 mg/kg

Compound	solubility kinetic (physchem) [µM]	CC50 (C6) [µM]	remaining at 1 h, 1 µM [2] [%]	remaining at 1 h, 10 µM [3] [%]	remaining at 1 h, 1 µM [5] [%]	further results
COc1cc(/C=C/C(=O)NCCn2c(C)cc3ccccc32)cc(OC)c1OC	45 (≈ 17.8 µg/mL)	172	0.2	4.8	0.1	remaining at 1 h, 10 µM [1]: 10.6%; Cmax [4]: 2400 ng/mL
COc1cc(/C=C/C(=O)NCCc2c(C)[nH]c3ccccc23)cc(OC)c1OC	43 (≈ 17 µg/mL)	59.5	0	0.2	0.8	remaining at 1 h, 10 µM [1]: 5.8%
Cc1cc2ccccc2n1CCNC(=O)/C=C/c1ccc(OCCCN(C)C)cc1	306 (≈ 124 µg/mL)					
COc1cc(/C=C/C(=O)NCCn2c(C)c(CN(C)C)c3ccccc32)cc(OC)c1OC	110 (≈ 49.7 µg/mL)					
COc1cc(/C=C/C(=O)NCCn2c(C(F)(F)F)cc3ccccc32)cc(OC)c1OCCO	35 (≈ 16.7 µg/mL)	31.2				
COc1cc(/C=C/C(=O)NCCn2c(CNC3CCN(C)CC3)cc3ccccc32)cc(OC)c1OC	180 (≈ 91.2 µg/mL)					
Cc1cc2ccccc2n1CCNC(=O)/C=C/c1ccc(OCCO)cc1	68 (≈ 24.8 µg/mL)	81.7				
COc1cc(/C=C/C(=O)NCCc2c(C)[nH]c3c(F)cc(F)cc23)cc(OC)c1OC	< 25					
COc1cc(/C=C/C(=O)NCCn2c(C)cc3ccccc32)cc(OC)c1	< 25					
COc1cc(/C=C/C(=O)NCCn2c(C)cc3ccccc32)cc(OC)c1OCCO	66 (≈ 28 µg/mL)	43.3				Kb [6]: 0.0067 µM; inhibition [6]: Dose-dependent effect
COc1ccc(/C=C/C(=O)NCCc2c(C)[nH]c3ccccc23)cc1OC	41 (≈ 14.9 µg/mL)	246	0.2	0.1	12.4	remaining at 1 h, 10 µM [1]: 18.6%
Cc1[nH]c2ccccc2c1CCNC(=O)/C=C/c1ccc(OCCO)c(OCCO)c1	235 (≈ 99.8 µg/mL)	126	7.1	19.3	58.5	remaining at 1 h, 10 µM [1]: 70.4%
COc1cc(/C=C/C(=O)NCCn2c(CN3CCOCC3)cc3ccccc32)cc(OC)c1OC	91 (≈ 43.6 µg/mL)					
COc1cc(/C=C/C(=O)NCCn2c(C)c(CN3CCCCC3)c3ccccc32)cc(OC)c1OC	75 (≈ 36.9 µg/mL)					
Cc1cc2ccccc2n1CCNC(=O)/C=C/c1ccc(OCCN(C)C)cc1	90 (≈ 35.2 µg/mL)					
COc1cc(/C=C/C(=O)NCCn2c(C)cc3ccccc32)cc(OC)c1OCCN(C)C	180 (≈ 81.3 µg/mL)					
Cc1cc2ccccc2n1CCNC(=O)/C=C/c1ccc(OCCCO)cc1	66 (≈ 25 µg/mL)	36.6				
COc1cc(/C=C/C(=O)NCCc2n[nH]c3ccccc23)cc(OC)c1OC	152 (≈ 58 µg/mL)					
Cc1cc(/C=C/C(=O)NCCc2c(C)[nH]c3ccccc23)cc(C)c1F	< 25	317	0.1	51.7	0.4	remaining at 1 h, 10 µM [1]: 21.4%
O=C(/C=C/c1ccc(OCCO)c(OCCO)c1)NCCn1c(C(F)(F)F)cc2ccccc21	67 (≈ 32.1 µg/mL)					
Cc1cc(/C=C/C(=O)NCCn2c(C)cc3ccccc32)cc(C)c1F	< 25	368	18.3	13	20.9	half-life [7]: 34.8 min; remaining at 1 h, 10 µM [1]: 24%
Cc1cc2ccccc2n1CCNC(=O)/C=C/c1ccc(OCCO)c(OCCO)c1	153 (≈ 64.9 µg/mL)	92.3	1.7	8.7	16.2	Kp [8]: < 0.1; Cmax (in vivo [9]): 128 ng/mL; Kp [10]: < 0.1; Cmax (in vivo [11]): 1510 ng/mL
